Source: patent US8143307B2, “Benzothiophen-2-carbonylguanidine derivatives, preparation thereof, and pharmaceutical composition containing the same” (Korea Research Institute of Chemical Technology, priority 2004, dated 2012)

Experiments:
[1] = test system: isolated ischemic rat heart; assay: Cardioprotective effect in isolated ischemic rat heart model (Langendorff); details: 10 μM, 30 min global ischemia, 30 min reperfusion
Description: Male rats (300 450 g, the Korea Research Institute of Chemical Technology, Experimental Animal Lab) were anesthetized by intraperitoneal injection with sodium pentobarbital at a dose of 100 mg/kg and were intravenously administered with heparine at a dose of 1000 U/kg, followed by the excision of the heart. In detail, a tracheotomy was performed and a tracheal cannula (PE 240) was inserted into the trachea for subsequent artificial ventilation with room air using a rodent ventilator. […] A catheter tip manometer connected to a latex balloon filled with a mixture of ethanol and distilled water (1:1 v/v) was inserted via an incision in the left atrium into the left ventricle, and the intraventricular pressure thereof transmitted to the latex balloon was measured isovolumetrically with a transducer and recorded on a recording system (Linearcorder mark 8 WR 3500) with the aid of an amplifier (Plugsys bridge amplifier). After stabilizing the heart for 15 min, the balloon volume was adjusted to create a left ventricular end-diastolic pressure (LVEDP) of 5 mmHg during the initial baseline period. The volume of the balloon was maintained until the end of the experiment. Baseline heart contraction function, spontaneous heart rate (HR) and coronary flow (CF) were determined from the left ventricular contraction interval. The left ventricular developed pressure (LVDP), which is regarded as an index of contractile function of the isolated heart, was calculated by subtracting left ventricular end-diastolic pressure (LVEDP) from left ventricular peak systolic pressure (LVSP). In contrast to the heart in the body, the Langendorff heart cannot be measured for cardiac output and thus, RPP (rate-pressure product), which is an important indirect indicator for cardiac performance, was calculated by multiplying heart rate (HR) by LVDP. Throughout the experiment, the temperature of the heart was maintained constant by […] in a 37° C. physiological solution to which 95% O2/5% CO2 was continuously supplied. The heart thus stabilized was perfursed for 10 min with a solution of the compounds of the invention or control drugs in DMSO (dimethylsulfoxide) diluted with HBS (final DMSO conc. 0.04%), or with the solvent only (a negative control; 0.04% DMSO) and then measured again for contractile function, heart rate (HR) and coronary flow (CF). The supply of perfusates was completely stopped for 30 min in order to induce global ischemia in the heart, followed by reperfusion for 30 min. The indices (LVDP, HR, LVEDP, and CF) were measured again. After the reperfusion, the total level of lactate dehydrogenase (LDH) in the reperfusates was measured using a kit and taken as an index of ischemic myocardial injury. A negative control group was treated with the solvent only while cariporide was used as a positive control.

Human NHE-1 = target: T1, Human NHE-1 (Homo sapiens, UniProt P19634); assay: Inhibitory effect on NHE-1 in PS120/NHE-1 cells (recovery from intracellular acidosis, BCECF fluorescence); assay type: cell-based; details: human NHE-1 expressed PS120 cells; concentration at which recovery from intracellular acidosis was 50% inhibited
T1 construct: expressed in transfected cells; host or cells: CCL39-derived PS120 cells (PS120/NHE-1)
T1 sequence (P19634 whole entry): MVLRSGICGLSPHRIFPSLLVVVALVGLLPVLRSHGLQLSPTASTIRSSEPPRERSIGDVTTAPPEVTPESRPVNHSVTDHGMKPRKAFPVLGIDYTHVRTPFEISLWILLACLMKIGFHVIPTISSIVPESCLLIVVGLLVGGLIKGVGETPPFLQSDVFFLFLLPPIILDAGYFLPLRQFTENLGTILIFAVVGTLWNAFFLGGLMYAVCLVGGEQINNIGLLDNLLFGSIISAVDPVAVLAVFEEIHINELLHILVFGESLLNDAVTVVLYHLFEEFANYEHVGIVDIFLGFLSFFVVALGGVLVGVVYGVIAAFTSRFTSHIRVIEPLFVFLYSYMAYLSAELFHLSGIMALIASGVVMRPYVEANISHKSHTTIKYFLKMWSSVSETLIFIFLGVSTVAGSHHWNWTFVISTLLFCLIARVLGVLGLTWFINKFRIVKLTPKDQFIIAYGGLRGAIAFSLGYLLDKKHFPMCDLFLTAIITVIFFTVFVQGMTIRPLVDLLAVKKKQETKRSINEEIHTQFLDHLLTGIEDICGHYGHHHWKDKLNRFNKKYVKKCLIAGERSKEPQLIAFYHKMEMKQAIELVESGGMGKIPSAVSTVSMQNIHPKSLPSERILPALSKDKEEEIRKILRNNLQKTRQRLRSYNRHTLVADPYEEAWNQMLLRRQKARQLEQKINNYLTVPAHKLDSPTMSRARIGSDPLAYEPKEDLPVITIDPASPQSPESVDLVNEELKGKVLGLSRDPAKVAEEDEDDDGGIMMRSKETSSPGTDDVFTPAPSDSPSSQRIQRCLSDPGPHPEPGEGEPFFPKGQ
Description: The benzothiophen-2-carbonylguanidine derivatives of the present invention were examined for NHE-1 inhibitory effect in cells according to the following procedure.
Human NHE-1 was expressed in CCL39-derived PS120 cells. These human NHE-1 expressed cells were cultured in DMEM (Dulbecco's modified Eagle's medium) supplemented with 10% fetal bovine serum, 1% penicillin/streptomycin (100× solution), 1% L-glutamine (200 mM aqueous solution). The PS120/NHE-1 cells grown in 100 mm dishes were treated with trypsin at 80-90% confluency, followed by washing with PBS (phosphate buffer saline) once, and then once with an Na-free buffer (138.2 mM Choline chloride, 4.9 mM KCl, […]. 2H2O, 1.2 mM MgSO4.7H2O, 1.2 mM KH2PO4, 15 mM D-glucose, 20 mM HEPES, at pH 7.4). After centrifugation, the pellet was suspended in an Na-free buffer containing 20 mM NH4Cl and 10 μM BCECF-AM [2′,7′-bis(2-carboxyethyl)-5,6-carboxy-fluorescein acetoxymethyl ester] and incubated at 37° C. for 30 min in a CO2 incubator. After being harvested by centrifugation, the PS120/NHE-1 cells were washed once with an Na-free buffer to remove both NH4Cl and extracellular BCECF-AM, suspended at a density of 2.5×10^4 cells/10 μl and stored at 4° C. in a dark room until reuse. In each well of 96-well microplates, 180 μl of HBS (137 mM NaCl, 4.9 mM KCl, 1.5 mM CaCl2. 2H2O, 1.2 mM MgSO4.7H2O, 1.2 mM KH2PO4, 15 mM D-glucose, 20 mM HEPES, at pH 7.4) and 10 μl of DMSO or 10 μl of a solution of the compound (0.03˜10 μM) of the present invention in DMSO were placed and well mixed, after which 10 μl aliquots of the intracellular acidosis-induced PS120/NHE-1 cells were added thereto. 4 min after the cell addition, fluorescence (excitation: 485/444 nm, emission: 535 nm) was measured in the GEMINI-XS Microplate Spectrofluorometer (Molecular Devices). The fluorescence measured was converted into pH values using a high-K^+/nigericin technique. The cells in which intracellular acidosis was induced with NH4Cl prepulses, were recovered to normal pH values through the operation of NHE-1. The inhibitory effect of the compound against NHE-1 was evaluated as concentrations at which the recovery from the intracellular acidosis to a normal state was 50% inhibited (IC50 values), with cariporide used as a control.

[2] = test system: in vivo ischemic rat heart model; assay: Cardioprotective effect on in vivo ischemic rat heart model (coronary occlusion/reperfusion, infarct size); details: 45 min occlusion, 90 min reperfusion
Description: The cardioprotective effect of the benzothiophen-2-carbonylguanidine derivatives according to the present invention in in vivo ischemic hearts was judged with regard to their antischemic effects (myocardiac infarction reduction) on rats as follows.
Each male rat (300˜450 g, the Korea Research Institute of Chemical Technology, Experimental Animal Lab) was anesthetized by intraperitoneal injection with sodium pentobarbital at a dose of 75 mg/kg. Tracheotomy was performed and a tube was inserted into the trachea for subsequent artificial ventilation with a stroke volume of 10 ml/kg and a respiratory rate of 60 breaths/min. The femoral vein and the femoral artery were cannulated for the administration of the compounds and for the measurement of blood pressures, respectively. Meanwhile, the body temperature of the rats, an important factor to influence experimental results in the ischemic myocardiac injury model, was maintained constant at 37° C. using a homeothermic blanket control unit, with a body temperature-monitoring probe inserted into the rectum. Subsequently, rats were continuously measured for mean arterial blood pressure and heart rate HR throughout the experimental time period using a Statham P23XL pressure transducer (Grass Ins., Mass., USA) and an ECG/RATE Coupler (Hugo Sachs Electronic, Germany), respectively, with all continuous changes thereof recorded by Graphtec Linearcorder WR 3310 (Hugo Sachs Electronic).
The left coronary artery was occluded according to Selye H.'s method. In detail, after the chest of each rat was partially opened by left thoracotomy, the middle finger of the left hand was pressed against the right side of the chest of the rat to thrust out the heart which was then slightly fixed with the forefinger and the thumb of the same hand. Then, immediately after the left anterior descending coronary artery (LAD) was sutured with a 5-0 silk ligature, the heart was repositioned back in the thoracic cavity with both ends of the suture positioned outside. The ends of the suture were threaded through a PE tube (PE100, 2.5 cm) and allowed to stand for 20 min for stabilization. Through the cannula inserted into the femoral vein, a vehicle or the compounds of the invention were administered and 30 min was needed for sufficient effects of the administered compounds. Cariporide was used as a control. The ends of the suture threaded through the PE tube were pulled taut with hemostatic forceps to vertically press the PE tube against the coronary artery. After occlusion for 45 min, the hemostatic forceps were removed and reperfusion was conducted for 90 min.
The coronary artery was reoccluded in the same manner as described above, followed by the intravenous injection of 2 ml of 1% Evans blue. The intravenous injection of an excess of pentobarbital killed the rats, from which the hearts were then excised. The left ventricle was removed alone from the isolated heart and transected from the cardiac apex into 5 or 6 slices. Each slice was weighed. The image of each of the heart slices was captured using a Hi-scope, a compact vision system, and analyzed for blue-stained normal areas and non-stained areas with an image analyzing program (Image Pro Plus). In each slice, the area at risk (AAR) was calculated by multiplying the ratio of the non-stained area to the total area of the slice with the weight of the slice. Sum of the individual area at risk (AAR) for each slice was divided by the total weight of the left ventricle to obtain AAR (%) according to the following mathmatical formula 1.
Separately, the heat slices were incubated in 1%. 2,3,5-triphenyltetrazolium chloride (TTC) phosphate buffer (pH 7.4), 37° C., for 15 min and fixed in 10% formalin for 20˜24 hours. In the normal area of the tissue, 2,3,5-triphenyltetrazolium chloride was reduced by the myocardial dehydrogenase in the presence of the cofactor NADH to form formazan dye, which appeared as a brick-red color. […]

SMILES: CS(=O)(=O)O.Cc1cccc2sc(C(=O)N=C(N)N)cc12 [Example 35, (4-Methylbenzothiophene-2-Carbonyl)Guanidine Methanesulfonate]
- LVEDP (left ventricular end-diastolic pressure) [1]: 38.0 mmHg
- RPP (rate-pressure product (LVDP × HR) % relative to the value before ischemia induction) [1]: 40.4%
- IC50 (Human NHE-1): 0.48 µM

SMILES: CS(=O)(=O)O.NC(N)=NC(=O)c1cc2c(Br)cccc2s1 [Example 1, (4-Bromobenzothiophene-2-Carbonyl)Guanidine Methanesulfonate]
- LVEDP (left ventricular end-diastolic pressure) [1]: 34.0 mmHg
- RPP (rate-pressure product (LVDP × HR) % relative to the value before ischemia induction) [1]: 54.7%
- IC50 (Human NHE-1): 0.2 µM

SMILES: CS(=O)(=O)O.Cc1ccc2sc(C(=O)N=C(N)N)cc2c1C [Example 47, (4,5-Dimethylbenzothiophene-2-Carbonyl)Guanidine Methanesulfonate]
- LDH (free LDH level upon reperfusion) [1]: 21.2 u/g
- LVEDP (left ventricular end-diastolic pressure) [1]: 25.0 mmHg
- RPP (rate-pressure product (LVDP × HR) % relative to the value before ischemia induction) [1]: 59.3%
- IC50 (Human NHE-1): 0.75 µM

SMILES: CC(C)c1ccc(C(=O)NC(=N)N)cc1S(C)(=O)=O [Cariporide, cariporide, reference compound]
- LDH (free LDH level upon reperfusion) [1]: 19.3 u/g
- LVEDP (left ventricular end-diastolic pressure) [1]: 22.4 mmHg
- RPP (rate-pressure product (LVDP × HR) % relative to the value before ischemia induction) [1]: 69.8%
- Myocardiac infarction rate (IS/AAR, %) ([2]; 0.1 mg/kg intravenous): 40.5%
- Myocardiac infarction rate (IS/AAR, %) ([2]; 0.3 mg/kg intravenous): 37.9%
- IC50 (Human NHE-1): 0.68 µM

SMILES: N=C(N)NC(=O)c1cc2c(I)cccc2s1 [Example 34, (4-Iodobenzothiophene-2-Carbonyl)Guanidine Methanesulfonate]
- LDH (free LDH level upon reperfusion) [1]: 7.1 u/g
- LVEDP (left ventricular end-diastolic pressure) [1]: 19.0 mmHg
- RPP (rate-pressure product (LVDP × HR) % relative to the value before ischemia induction) [1]: 65.8%
- IC50 (Human NHE-1): < 0.5 µM

SMILES: CS(=O)(=O)O.NC(N)=NC(=O)c1cc2c(Cl)cccc2s1 [Example 32, (4-Chlorobenzothiophene-2-Carbonyl)Guanidine Methanesulfonate]
- LDH (free LDH level upon reperfusion) [1]: 8.8 u/g
- LVEDP (left ventricular end-diastolic pressure) [1]: 25.3 mmHg
- RPP (rate-pressure product (LVDP × HR) % relative to the value before ischemia induction) [1]: 60.8%
- IC50 (Human NHE-1): 0.2 µM

SMILES: CS(=O)(=O)O.NC(N)=NC(=O)c1cc2c(-c3ccc(F)c(Cl)c3)cccc2s1 [Example 23, [4-(3-Chloro-4-Fluorophenyl)Benzothiophene-2-Carbonyl]Guanidine Methanesulfonate]
- LDH (free LDH level upon reperfusion) [1]: 8.8 u/g
- LVEDP (left ventricular end-diastolic pressure) [1]: 68.0 mmHg
- RPP (rate-pressure product (LVDP × HR) % relative to the value before ischemia induction) [1]: 5.9%
- IC50 (Human NHE-1): 2.48 µM

SMILES: CS(=O)(=O)O.Cc1ccc2sc(C(=O)N=C(N)N)cc2c1Br [Example 45, (4-Bromo-5-Methylbenzothiophene-2-Carbonyl)Guanidine Methanesulfonate]
- LDH (free LDH level upon reperfusion) [1]: 22.5 u/g
- LVEDP (left ventricular end-diastolic pressure) [1]: 41.8 mmHg
- RPP (rate-pressure product (LVDP × HR) % relative to the value before ischemia induction) [1]: 50.4%
- IC50 (Human NHE-1): 0.29 µM

SMILES: CS(=O)(=O)O.NC(N)=NC(=O)c1cc2c([N+](=O)[O-])cccc2s1 [Example 39, (4-Nitrobenzothiophene-2-Carbonyl)Guanidine Methanesulfonate]
- LDH (free LDH level upon reperfusion) [1]: 10.8 u/g
- LVEDP (left ventricular end-diastolic pressure) [1]: 11.3 mmHg
- RPP (rate-pressure product (LVDP × HR) % relative to the value before ischemia induction) [1]: 73.3%
- IC50 (Human NHE-1): 2.34 µM

SMILES: C=Cc1cccc2sc(C(=O)N=C(N)N)cc12.CS(=O)(=O)O [Example 36, (4-Vinylbenzothiophene-2-Carbonyl)Guanidine Methanesulfonate]
- LDH (free LDH level upon reperfusion) [1]: 13.1 u/g
- LVEDP (left ventricular end-diastolic pressure) [1]: 42.0 mmHg
- RPP (rate-pressure product (LVDP × HR) % relative to the value before ischemia induction) [1]: 51.0%
- IC50 (Human NHE-1): 0.31 µM

SMILES: CS(=O)(=O)O.NC(N)=NC(=O)c1cc2c(-c3cc(Cl)cc(Cl)c3)cccc2s1 [Example 19, [4-(3,5-Dichlorophenyl)Benzothiophene-2-Carbonyl]Guanidine Methanesulfonate]
- LVEDP (left ventricular end-diastolic pressure) [1]: 64.4 mmHg
- RPP (rate-pressure product (LVDP × HR) % relative to the value before ischemia induction) [1]: 19.1%
- IC50 (Human NHE-1): 0.68 µM

SMILES: CS(=O)(=O)O.NC(N)=NC(=O)c1cc2c(F)cccc2s1 [Example 33, (4-Fluorobenzothiophene-2-Carbonyl)Guanidine Methanesulfonate]
- LDH (free LDH level upon reperfusion) [1]: 7.0 u/g
- LVEDP (left ventricular end-diastolic pressure) [1]: 37.7 mmHg
- RPP (rate-pressure product (LVDP × HR) % relative to the value before ischemia induction) [1]: 46.6%
- IC50 (Human NHE-1): 1.73 µM
